Measured values from patent publication US12054762B2, “Methods of protein production using anti-senescence compounds” (WYETH LLC, priority 2007, dated 2024).
Where two headings read alike, the source gives them in different places.

Key:
MYO-29 cell line [1] = assay: Different concentrations of carnosine in 1 L bioreactor culture, MYO-29 cell line; format: cell-based
Procedure: Four bioreactors were inoculated with 0.4×10^6 cells/ml with a 1 L working volume of a MYO-29 cell line in a serum free inoculation medium. All the bioreactors were all fed 5% (v/v) of a feed medium on day 7 of the 14-day run. The conditions of the bioreactor were held at a temperature of 37° C., a pH of 7.00, and a dissolved oxygen level at 30% air saturation.
All cells were cultured for four days at which point the temperature was shifted in all of the bioreactors to 31° C. […] All bioreactors were harvested on day 12 of the production run. Samples were taken throughout the run to monitor the progress of the cell culture medium. The controls performed generally as expected, except one control had slightly lower daily viabilities than previously seen.

[2] = system: human diploid fibroblasts and human fetal lung (primary cell lines); conditions: 20 mM in culture media; cited from earlier work
[3] = system: Chinese Hamster Ovary (CHO) Cell Line Producing Recombinant TNFR Fusion Protein; assay: Carnosine in 1 L bioreactor culture of cells producing recombinant TNFR fusion protein; format: cell-based; conditions: 20 mM carnosine added day 2
Procedure: A TNFR fusion protein cell line was cultured in a serum free production medium in a bioreactor with a 1 L working volume. On day 1, the temperature was shifted from 37° C. to 29.5° C., sodium butyrate was added to a final concentration of 1 mM, and HMBA was added to a final concentration of 3 mM. The pH of the bioreactor was held at 6.95 and the dissolved oxygen was at 60% air saturation. On day 2, carnosine was added to the culture to a final concentration of 20 mM. The cells were supplemented with a 5% (v/v) feed medium on days 3, 6, 8, and 10. The cell culture medium was harvested on day 12. Four separate control bioreactors were run in which CHO cells expressing a recombinant TNFR fusion protein were grown under conditions identical to those described above, except that carnosine was not added on day 2. The control data in FIGS. 4-11 is the average of the four control bioreactor runs.

[4] = system: human or rodent transformed and neoplastic cells; conditions: cited from earlier work
MYO-29 cell line [5] = assay: Carnosine addition to 1 L bioreactor fed-batch culture, MYO-29 cell line; format: cell-based; conditions: 20 mM carnosine added day 4
Procedure: Five bioreactors were inoculated with 0.9×10^6 cells/ml with a 1 L working volume of a MYO-29 cell line in a serum free inoculation medium. All the bioreactors were fed 5% (v/v) of a feed medium on days 3, 5, 7, and 12 of a 14-day run. A day 10 feed of 5% (v/v) of the feed medium was added to two of the control bioreactors and one containing carnosine. The conditions of the bioreactors were held at a temperature of 37° C., a pH of 7.00, and a dissolved oxygen level at 30% air saturation.
The bioreactors were harvested on day 14 of the production run. Samples were taken throughout the run to monitor the progress of the cell culture medium. The controls performed as expected.

MYO-29 cell line [6] = assay: Dish scale carnosine experiments, MYO-29 cell line culture; format: cell-based; conditions: 10 mM carnosine added to dishes on day 4, 7 or 10; harvested day 12; vs no carnosine
Procedure: A MYO-29 cell line was cultured in a serum free production medium in a bioreactor with a 1 L working volume and was temperature shifted from 37° C. to 31° C. on day 4. The pH of the bioreactor was held at 7.00 and the dissolved oxygen was at 30% air saturation. Cell culture medium was then taken from the bioreactor on day 4, day 7, and day 10 and put into culture dishes with an 8 ml working volume and placed into a 31° C. incubator, where the dish cultures were cultured until day 12. The cells were supplemented with a feed medium on days 5 and 7. On day 5, 10% (v/v) of feed medium was added to the cell cultures and on day 7, 5% (v/v) of feed medium was added to the cell cultures. 10 mM of carnosine was added on day 4, day 7, and day 10, respectively, to the dishes and the cell culture medium was harvested on day 12.

[7] = addition of the chemical agent to cell culture; cited from earlier work
[8] = vs average of 4 control bioreactors

## NCCC(=O)N[C@@H](Cc1cnc[nH]1)C(=O)O [carnosine]
MYO-29 cell line [1]; 20 mM or 40 mM carnosine added day 4, compared to the controls
  high molecular weight aggregates: decrease
MYO-29 cell line [1]; 20 mM or 40 mM carnosine added day 4, compared with one of the controls
  daily titer: similar
MYO-29 cell line [1]; 20 mM or 40 mM carnosine added day 4, harvest day 12, compared to two control bioreactors
  daily cell viability upon being harvested: higher viability
MYO-29 cell line [1]; 20 mM or 40 mM carnosine added day 4, vs controls
  daily viable cell density: fairly similar with the exception of the bioreactor with 4 mM of carnosine
MYO-29 cell line [1]; 40 mM carnosine added day 4
  cumulative specific cellular productivity: higher
[2]
  lifespan of cells: extend the lifespan
[3]; hydrophobic interaction chromatography (HIC), vs controls
  amount of misfolded and/or aggregated TNFR fusion protein: significantly reduced
[3]; size exclusion chromatography (SEC), vs controls
  amount of high molecular weight (HMW) aggregates: significantly reduced
[3]; [8]
  cell growth (viable cell density): not significantly affected
  cell viability: not significantly affected
[3]; vs controls
  glycosylation of the produced TNFR fusion protein (total sialylation, sialylated N-linked oligosaccharides): not significantly different
  product titer: increased
  specific cellular productivity: increased
[4]; Dulbecco's Modified Eagle's Medium (DMEM), contains 1 mM pyruvate
  cytotoxicity: not
[4]; Minimal Essential Medium (MEM), lower glucose levels
  cytotoxicity: cytotoxic
MYO-29 cell line [5]; harvest day 14, compared to bioreactors without carnosine
  daily cell viability upon being harvested: higher
MYO-29 cell line [5]; harvest day 14, vs controls
  titer at the time of harvest: higher titer
MYO-29 cell line [5]; vs controls
  cumulative specific cellular productivity: better
  high molecular weight aggregates: decrease
MYO-29 cell line [6]
  acidic peaks: decreasing
  high molecular weight aggregates: decreasing

## CCCC(=O)[O-].[Na+] [sodium butyrate]
[7]
  cell growth and viable cell number: cell growth ceases and the viable cell number decreases
